Test results from article PMC6934184, “Selective DNA-PKcs inhibition extends the therapeutic index of localized radiotherapy and chemotherapy” (The Journal of Clinical Investigation, 2019).

Molecular target: T1, STK39 (STLK3) (Homo sapiens, UniProt Q9UEW8)
T1 construct: purchased Thermo Fisher Scientific (Life Technologies) SelectScreen
Experiment: SelectScreen LanthaScreen
Assay type: binding
Conditions: read-out: % displacement
Outline: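 SelectScreen broad panel; activity (Z'LYTE, Adapta) plus binding formats. ATP: Km app for CSF1R Z'LYTE; 10 for CAMK1 Adapta. Readout = % per kinase.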

`CN(C(=O)CN1CCOCC1)c1ccc2sc3c(-c4cccc5c(=O)cc(N6CC7CCC(C6)O7)oc45)cccc3c2c1` [NU5455] was tested, and the inhibition at 1 µM was 16.2%.
